Assay results from patent US20250129370A1, “METHOD FOR REDUCING HEPATIC TRIGLYCERIDES” (ADAERATA, LIMITED PARTNERSHIP, priority 2022, published 2025).
*: point of attachment. Decanoyl = CCCCCCCCCC(=O)*; CH2Cl = ClC*

Key:
[1] = test system: Mouse FL38B hepatocyte cells; experiment: Lipid droplet accumulation in oleic acid-treated mouse hepatocyte cells; format: cell-based
Method: FIGS. 37A-E: Comparison of various ASOs and vitamin E on lipid droplet accumulation in mouse FL38B hepatocytes. (FIG. 37A) Immunocytochemical analysis of mouse FL38B hepatocyte cells incubated for 48 h with oleic acid in the presence of either fluorescent mouse mASO-1, mASO-2 or mASO-7 (not shown) or α-tocopherol (vitamin E) (arrows pointing towards transfected cells, red staining indicate lipid droplets). (FIG. 37B) Quantitative analysis of results expressed in bar graph. (FIGS. 37C-D). The effect of eight ASOs on Pcsk7 mRNA levels as measured by quantitative PCR (qPCR). The experiment was repeated two independent times. *p<0.05 (FIG. 37A) The effect of mASO-1, mASO-2, mASO-7 and Vitamin E on reduction of accumulation of fluorescent triglycerides in cells as estimated by FACS measurement of lipid droplets (LD) by LipidTox™ staining. (FIG. 37E). modifications of ASO by trivalent linkage to N-acetyl-Galactosamine ([…]).
The effect of eight ASOs on Pcsk7 mRNA levels was measured by quantitative PCR (qPCR) (FIG. 37C). Mouse FL38B hepatocyte cells were incubated for 48 h with oleic acid in the presence of either fluorescent (green) mouse mASO-1, mASO-7 or α-tocopherol (vitamin E). […] (FIGS. 37B-37D). Mouse FL38B hepatocyte cells were plated on day 1, ASOs were added on day 2, the media was replaced on day 3 and RNA was extracted on day 4. […]

mice fed a HFFC diet = experiment: Liver lipid droplets and histopathology in mice recovering from HFFC diet; format: in vivo, mouse; details: after 8 weeks recovery and treatment
Text: FIGS. 39A-D (FIG. 39A) Upper panels—Oil red 0 staining of liver sections control (no treatment), and ASO-2, ASO-7 and α-tocopherol treated mice. Lower panels; Total area of LDs, mean area of LD and LD number in non treated mice or in mice treated with GalNac-ASO-7, GalNac-ASO-2 or α-tocopherol. (FIG. 39B) Liver morphology and fat accumulation measured in terms of liver inflammation, hepatocyte ballooning and steatosis grade in non treated mice or in mice treated with GalNac-ASO-7, GalNac-ASO-2 or α-tocopherol. (FIG. 39C) Extent of fibrosis measured by Sirius red staining in non treated mice or in mice treated with GalNac-ASO-7, GalNac-ASO-2 or α-tocopherol. […]
Eight ASOs against mouse Pcsk7 were tested in mouse FL38B hepatocytes and the best ones, namely ASO2 and ASO7, were modified (FIG. 37D) with covalent linkages to trivalent N-acetyl-Galactosamine (GalNac) residues (FIG. 37E). […] Mice were next injected with 5 mg/kg of either GalNac-ASO7 and GalNac-ASO-2, twice a week for 1 month, whereupon the livers and their partially purified primary hepatocytes were analyzed by RT-qPCR for the levels of Pcsk7 mRNA. […]
The reduction of LD accumulation in mice treated with GalNac-ASO-7 or GalNac-ASO-2 compared to α-tocopherol was next analyzed (FIG. 39A).

Pcsk7 mRNA = experiment: Liver Pcsk7 mRNA after the recovery period following HFFC diet; format: in vivo, mouse; details: after 8 weeks recovery, 500 IU/kg of food
Method: The dose-dependent efficacy of these ASOs following their subcutaneous injection in mice was tested for the decrease in total liver Pcsk7 mRNA at 2, 5, 10 and 15 mg/kg, twice a week for 1 month. […] Mice were next injected with 5 mg/kg of either GalNac-ASO7 and GalNac-ASO-2, twice a week for 1 month, whereupon the livers and their partially purified primary hepatocytes were analyzed by RT-qPCR for the levels of Pcsk7 mRNA. […] A program was then set up whereby 8 weeks-old mice were fed a HFFC diet for 16 weeks, after which they were switched to a regular chow diet for another 8 weeks recovery period. The mice were divided into 3 groups of 12 mice each and treated as follows starting from the beginning of the recovery period (FIG. 38C): (1) a control non-treated group; (2) two GalNac-ASO groups subcutaneously injected twice a week for 8 weeks with either GalNac-ASO7 or GalNac-ASO2 at 5 mg/kg; (3) a group fed a chow diet containing Vitamin E (α-tocopherol) at 500 IU/kg of food.
The inventors next compared the levels of Pcsk7 mRNAs in the livers of mice after the 8 weeks recovery period that followed the 16-weeks HFFC diet.

PC7 = target: T1, PC7 (Homo sapiens, UniProt Q16549); experiment: s-apoB secretion in IHH cells overexpressing PC7, with pan-proprotein convertase inhibitor; format: cell-based; details: naive IHH cells overexpressing PC7 and s-apoB
T1 construct: expressed in transfected cells; host or cells: naïve IHH cells
T1 sequence (Q16549 142-785): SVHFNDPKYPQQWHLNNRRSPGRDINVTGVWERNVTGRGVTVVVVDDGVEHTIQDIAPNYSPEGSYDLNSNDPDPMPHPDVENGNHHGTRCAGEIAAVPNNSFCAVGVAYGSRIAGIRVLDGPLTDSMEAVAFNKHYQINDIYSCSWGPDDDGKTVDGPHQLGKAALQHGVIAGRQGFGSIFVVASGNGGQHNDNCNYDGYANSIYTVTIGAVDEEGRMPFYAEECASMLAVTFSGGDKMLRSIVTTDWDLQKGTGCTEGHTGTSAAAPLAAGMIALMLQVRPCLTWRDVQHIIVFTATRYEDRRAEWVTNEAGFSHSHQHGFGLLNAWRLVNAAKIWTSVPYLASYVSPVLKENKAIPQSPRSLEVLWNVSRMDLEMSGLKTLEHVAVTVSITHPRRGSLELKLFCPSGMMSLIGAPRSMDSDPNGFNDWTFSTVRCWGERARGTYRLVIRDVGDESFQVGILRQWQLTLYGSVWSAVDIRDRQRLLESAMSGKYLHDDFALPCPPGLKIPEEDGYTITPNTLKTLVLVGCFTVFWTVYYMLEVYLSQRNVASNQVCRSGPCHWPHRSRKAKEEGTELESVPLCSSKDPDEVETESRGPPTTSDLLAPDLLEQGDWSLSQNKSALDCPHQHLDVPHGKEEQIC
Method: FIGS. 7A-l: PCSK7 can bind apoB in the ER and acts as a molecular chaperone-like facilitating its secretion, and its absence leads to a rapid degradation of apoB by the proteasome. […] (FIG. 7A) Western blot (presented on gel and graphically) of apoB100 and PC7 protein levels in WT and PCSK7^−/− IHH cells. Levels are normalized to α-tubulin. (FIG. 7B) Western blot (presented on gel and graphically) of apoB100 and PC7 protein levels over time (0, 15 and 30 minutes) in WT and PCSK7^−/− IHH cells incubated with cycloheximide (CHX) to block de novo mRNA translation. Levels are normalized to α-tubulin. (FIG. 7C-D) Western blot (presented on gel and graphically) of cellular apoB levels in WT and PCSK7^−/− IHH cells incubated with brefeldin A (BFA) that blocks exit from the endoplasmic reticulum (ER), an autophagy inhibitor 3-methyladenine (3MA), proteasome inhibitors MG132, Lactacystin, DMSO or non treated (NT) controls. (FIG. 7E) Western blot (presented on gel) of cellular apoB levels and polyubiquitinated apoB100 in WT and PCSK7^−/− IHH cells incubated with Lactacystin. (FIG. 7F) Schematic representation of apoB100 and apoB21 protein. […]

chaperone-like activity of PC7 on apoB (s-apoB secretion) (PC7) | Compound | accumulation of lipid droplets ([1]; 48 h with oleic acid, immunocytochemistry) | accumulation of fluorescent triglycerides in cells ([1]; FACS measurement of lipid droplets by LipidTox staining) | reduced total area, more abundant but smaller LDs, relative to GalNac-ASO7 (mice fed a HFFC diet) | increase in Pcsk7 mRNA levels (Pcsk7 mRNA) [%]
– | Cc1c(C)c2c(c(C)c1O)CC[C@@](C)(CCC[C@H](C)CCC[C@H](C)CCCC(C)C)O2 [α-tocopherol] | significantly reduced | best reduction | significantly less | 33
did not block | Decanoyl-RVKR-CH2Cl | – | – | – | –
